The target of experiment [1] is T1, PRMT5 (Homo sapiens, UniProt O14744).
T1 construct: purchased Viva (custom protein)
As to the kind of experiment: PRMT5 biochemical IC50 assay with SAM as cofactor. The conditions noted are these: PRMT5, SAM as cofactor; read-out: SAM IC50.

For experiment [2], the system named is HAP1 MTAP-deleted cell line. As to the kind of experiment: Viability assay, MTAP-deleted cell line. It is filed as cell-based. The conditions noted are these: Homo sapiens, read-out: HAP1 MTAP deleted viability. An excerpt: Table 1 additionally indicates IC50 values in a viability assay for the MTAP-deleted cell line (column 10), indicating the effect of treatment with compound on cell survival.

Experiment [3] concerns the target T1, PRMT5. As to the kind of experiment: PRMT5 biochemical IC50 assay with MTA as cofactor. The note with it: PRMT5, MTA as cofactor; read-out: MTA IC50.
Experiment [4] concerns the target T1, PRMT5. As to the kind of experiment: PRMT5 biochemical IC50 assay with no cofactor. The conditions noted are these: PRMT5, no cofactor. An excerpt: Table 1 indicates IC50 values (μM) against PRMT5 for exemplary compounds in the presence of SAM as cofactor, with no cofactor, and with MTA as cofactor, respectively (columns 4-6). […] Ki values can be calculated from the IC50 values as described in the Examples section. As detailed in the Examples section, for the assay performed in the presence of SAM, IC50=Ki×1.5 (Ki=IC50/1.5).

Experiment [5] deals with HAP1 MTAP-intact cell line. In words: SDMA in-cell western assay, HAP1 MTAP-intact. It is filed as cell-based. The conditions noted are these: Homo sapiens, HAP1, SDMA in-cell western, HAP1 MTAP-intact; read-out: MTAP HAP1 intact IC50. The method in brief:
(§1)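 Readout: in-cell western detection of SDMA. Cells: HAP1 expressing endogenous MTAP and an MTAP-null HAP1 counterpart. Output: IC50.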

The subject of experiment [6] is HAP1 MTAP-deleted cell line. As to the kind of experiment: SDMA in-cell western assay, HAP1 MTAP-deleted. The note with it: for IC50: Homo sapiens, HAP1, SDMA in-cell western, HAP1 MTAP-deleted; for MTAP intact/deleted ratio: SDMA in-cell western. It is filed as cell-based. The method in brief:
as §1

Setting [7] is: HAP1, viability IC50, MTAP-deleted cell line.
The mark [8] stands for this setting: read-out: HAP 1 MTAP deleted IC50.
The mark [9] stands for this setting: IC50 ratio HAP1 MTAP-intact / HAP1 MTAP-deleted.
The mark [10] stands for this setting: HAP1, viability, HAP1 MTAP-deleted cell line.
The mark [11] stands for this setting: read-out: No Cofactor/ rel IC50.
[12] abbreviates: HAP1, viability assay, MTAP-deleted cell line.
[13] abbreviates: read-out: HAP1 MTAP deleted IC50.
[14] abbreviates: IC50 ratio HAP1 MTAP-intact vs HAP1 MTAP-deleted.
Setting [15] is: HAP1, viability assay, HAP1 MTAP-deleted.

T1 sequence (O14744 whole entry): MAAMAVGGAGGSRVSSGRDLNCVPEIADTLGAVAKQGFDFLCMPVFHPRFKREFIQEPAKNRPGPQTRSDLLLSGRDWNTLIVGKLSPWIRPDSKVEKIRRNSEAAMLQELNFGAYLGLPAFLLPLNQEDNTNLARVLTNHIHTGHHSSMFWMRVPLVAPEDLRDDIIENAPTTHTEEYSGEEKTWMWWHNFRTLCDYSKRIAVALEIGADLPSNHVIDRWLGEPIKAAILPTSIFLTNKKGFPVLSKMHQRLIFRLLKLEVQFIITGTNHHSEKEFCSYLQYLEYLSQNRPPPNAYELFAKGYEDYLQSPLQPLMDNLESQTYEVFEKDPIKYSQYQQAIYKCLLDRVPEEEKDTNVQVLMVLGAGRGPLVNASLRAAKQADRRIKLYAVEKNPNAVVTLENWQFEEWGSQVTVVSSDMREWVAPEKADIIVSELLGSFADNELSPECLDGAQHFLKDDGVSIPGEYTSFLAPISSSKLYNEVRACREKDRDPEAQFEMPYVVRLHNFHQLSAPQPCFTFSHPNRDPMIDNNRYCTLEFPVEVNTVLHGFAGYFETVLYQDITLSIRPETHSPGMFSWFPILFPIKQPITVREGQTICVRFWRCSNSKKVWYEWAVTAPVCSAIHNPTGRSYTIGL
T1 sequence (Q9BQA1 whole entry partner): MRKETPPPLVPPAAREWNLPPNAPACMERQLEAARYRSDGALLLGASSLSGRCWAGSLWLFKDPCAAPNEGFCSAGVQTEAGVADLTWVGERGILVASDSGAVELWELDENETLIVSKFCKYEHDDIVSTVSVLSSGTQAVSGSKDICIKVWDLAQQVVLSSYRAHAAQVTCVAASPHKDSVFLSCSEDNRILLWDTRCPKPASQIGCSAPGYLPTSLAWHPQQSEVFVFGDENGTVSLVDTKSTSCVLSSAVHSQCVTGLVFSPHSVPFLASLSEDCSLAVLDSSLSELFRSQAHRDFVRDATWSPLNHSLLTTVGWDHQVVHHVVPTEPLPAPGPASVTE

As to `Cc1cc(NC(=O)C(=O)N2C[C@@H](C)CC[C@@H]2[C@@H]2CCC[C@@H](O)C2)cnc1N` (single isomer, unassigned) [Compound 568], the IC50 in experiment [1] was over 500 nM; in experiment [2] (setting [7]), over 10000 nM; in experiment [3], over 500 nM; in experiment [4] (read-out: No Cofactor/rel IC50), over 500 nM; in experiment [5] it was over 1000 nM; in experiment [6] (setting [8]) it was over 1000 nM. For the same molecule, the MTAP intact/deleted ratio entry in experiment [6] (setting [9]) is “C (an IC50 ratio of less than 3 fold)”.
As to `Cc1nc2cc([C@@H]3CC[C@@H](C)CN3C(=O)C(=O)Nc3cncc(C(N)=O)c3)ccc2s1` (single isomer, unassigned) [Compound 693], the IC50 was 50 to 500 nM in experiment [1]; under 1000 nM in experiment [2] (setting [7]); under 50 nM in experiment [3]; under 50 nM in experiment [4] (read-out: No Cofactor/rel IC50); 100 to 1000 nM in experiment [5]; under 100 nM in experiment [6] (setting [8]). Besides, the MTAP intact/deleted ratio result in experiment [6] (setting [9]) is “A (an IC50 ratio greater than or equal to 10 fold)”.
With `Cc1cc(NC(=O)C(=O)N2C[C@@H](C)[C@@H](OC(C)C)C[C@@H]2c2ccccc2)cnc1N` (single isomer, unassigned) [Compound 1302], the IC50 in experiment [1] is over 500 nM; in experiment [2] (setting [10]) it was over 10000 nM; in experiment [3], over 500 nM; in experiment [4] (setting [11]) it was over 500 nM; in experiment [5], over 1000 nM; in experiment [6] (setting [8]), over 1000 nM.
Take `CNC(=O)c1ccc([C@H]2CC[C@H](C)CN2C(=O)C(=O)Nc2cncc(C)c2)cc1` (racemic) [Compound 92, N-methyl-4-(5-methyl-1-(2-((5-methylpyridin-3-yl)amino)-2-oxoacetyl)piperidin-2-yl)benzamide]: the IC50 was over 500 nM in experiment [1]; over 10000 nM in experiment [2] (setting [12]); 50 to 500 nM in experiment [3]; over 500 nM in experiment [4] (setting [11]); over 1000 nM in experiment [5]; over 1000 nM in experiment [6] (setting [8]). Besides, the “MTAP intact/deleted ratio” value in experiment [6] (setting [9]) was “C (an IC50 ratio of less than 3 fold)”.
For the molecule `CCc1cc(NC(=O)C(=O)N2C[C@@H](C)CC[C@@H]2c2ccc(CCN(C)C)cc2)cnc1N` [Compound 1228, N-(6-amino-5-ethylpyridin-3-yl)-2-((2R,5S)-2-(4-(2-(dimethylamino)ethyl)phenyl)-5-methylpiperidin-1-yl)-2-oxoacetamide], the IC50 in experiment [1] is 50 to 500 nM; in experiment [2] (setting [12]), under 1000 nM; in experiment [3], under 50 nM; in experiment [4] (read-out: No Cofactor/rel IC50) it was under 50 nM; in experiment [5], 100 to 1000 nM; in experiment [6] (setting [13]), under 100 nM. The MTAP intact/deleted ratio entry in experiment [6] (setting [14]) is “A (an IC50 ratio greater than or equal to 10 fold)”.
On to `C[C@@H]1CC[C@@H](c2ccc(Cl)cc2)N(C(=O)C(=O)Nc2cncc(C(N)=O)c2)C1` (single isomer, unassigned) [Compound 570], for which the IC50 in experiment [1] was 50 to 500 nM; in experiment [2] (setting [7]), 1000 to 10000 nM; in experiment [3], under 50 nM; in experiment [4] (read-out: No Cofactor/rel IC50), 50 to 500 nM; in experiment [5], over 1000 nM; in experiment [6] (setting [8]) it was under 100 nM. The MTAP intact/deleted ratio result in experiment [6] (setting [9]) is given as “A (an IC50 ratio greater than or equal to 10 fold)”.
As for `Cc1cc(NC(=O)C(=O)N2C[C@H](C)CC[C@H]2c2ccc3sc(C(F)(F)F)nc3c2)cnc1N` (single isomer, unassigned) [Compound 959], the IC50 is over 500 nM in experiment [1]; over 10000 nM in experiment [2] (setting [12]); over 500 nM in experiment [3]; over 500 nM in experiment [4] (read-out: No Cofactor/rel IC50); over 1000 nM in experiment [5]; over 1000 nM in experiment [6] (setting [8]). The MTAP intact/deleted ratio result in experiment [6] (setting [9]) is listed as “B (an IC50 ratio greater than or equal to 3 fold but lower than 10 fold)”.
As for `COc1ncc(NC(=O)C(=O)N2C[C@H](C)CC[C@H]2c2ccc3[nH]c(=O)ccc3c2)cc1C(N)=O` (single isomer, unassigned) [Compound 810], the IC50 was over 500 nM in experiment [1]; over 10000 nM in experiment [2] (setting [15]); over 500 nM in experiment [3]; over 500 nM in experiment [4] (read-out: No Cofactor/rel IC50); over 1000 nM in experiment [5]; over 1000 nM in experiment [6] (setting [13]). Moreover, the MTAP intact/deleted ratio result in experiment [6] (setting [9]) is given as “B (an IC50 ratio greater than or equal to 3 fold but lower than 10 fold)”.
With `Cc1cc(NC(=O)C(=O)N2C[C@H](C)CC[C@H]2c2ccc3[nH]ncc3c2)cnc1C` (single isomer, unassigned) [Compound 631], the IC50 was over 500 nM in experiment [1]; over 10000 nM in experiment [2] (setting [7]); over 500 nM in experiment [3]; over 500 nM in experiment [4] (read-out: No Cofactor/rel IC50); over 1000 nM in experiment [5]; over 1000 nM in experiment [6] (setting [8]). In addition, in experiment [6] (setting [9]), the MTAP intact/deleted ratio result is on record as “C (an IC50 ratio of less than 3 fold)”.
Take `COc1ncc(NC(=O)C(=O)N2C[C@@H](C)CC[C@@H]2c2ccc3sc([C@H]4CCCN(C)C4)nc3c2)cc1C(N)=O` [Compound 1359, 2-methoxy-5-(2-((2R,5S)-5-methyl-2-(2-((S)-1-methylpiperidin-3-yl)benzo[d]thiazol-5-yl)piperidin-1-yl)-2-oxoacetamido)nicotinamide]: the IC50 in experiment [1] is under 50 nM; in experiment [2] (setting [10]), under 1000 nM; in experiment [3], under 50 nM; in experiment [4] (setting [11]) it was under 50 nM; in experiment [5] it was under 100 nM; in experiment [6] (setting [8]), under 100 nM. For the same molecule, in experiment [6] (setting [9]), the “MTAP intact/deleted ratio” value is given as “A (an IC50 ratio greater than or equal to 10 fold)”.
For the molecule `Cc1cc(NC(=O)C(=O)N2C[C@H](C)[C@@H](OC(C)C)C[C@H]2c2ccccc2)cnc1N` (single isomer, unassigned) [Compound 1088], the IC50 is 50 to 500 nM in experiment [1]; under 1000 nM in experiment [2] (setting [12]); under 50 nM in experiment [3]; under 50 nM in experiment [4] (read-out: No Cofactor/rel IC50); 100 to 1000 nM in experiment [5]; under 100 nM in experiment [6] (setting [13]). For the same molecule, the MTAP intact/deleted ratio entry in experiment [6] (setting [14]) was “A (an IC50 ratio greater than or equal to 10 fold)”.
As for `Cc1cc(NC(=O)C(=O)N2C[C@@H](C)CC[C@@H]2c2ccc(NCC(F)(F)F)cc2)cnc1N` (single isomer, unassigned) [Compound 528], the IC50 in experiment [1] is over 500 nM; in experiment [2] (setting [7]) it was 1000 to 10000 nM; in experiment [3] it was over 500 nM; in experiment [4] (read-out: No Cofactor/rel IC50), over 500 nM; in experiment [5], over 1000 nM; in experiment [6] (setting [8]), over 1000 nM. For the same molecule, in experiment [6] (setting [9]), the MTAP intact/deleted ratio result was “B (an IC50 ratio greater than or equal to 3 fold but lower than 10 fold)”.
With `COc1ncc(NC(=O)C(=O)N2C[C@H](C)CC[C@H]2c2ccc3cnccc3c2)cc1C(N)=O` (single isomer, unassigned) [Compound 933], the IC50 was over 500 nM in experiment [1]; over 10000 nM in experiment [2] (setting [12]); over 500 nM in experiment [3]; over 500 nM in experiment [4] (read-out: No Cofactor/rel IC50); over 1000 nM in experiment [5]; over 1000 nM in experiment [6] (setting [8]). Moreover, the MTAP intact/deleted ratio result in experiment [6] (setting [9]) was “B (an IC50 ratio greater than or equal to 3 fold but lower than 10 fold)”.
In the case of `C[C@@H]1CC[C@@H](c2ccc(F)c(O)c2)N(C(=O)C(=O)Nc2cncc(C(N)=O)c2)C1` (racemic) [Compound 540, 5-[[2-[(2R,5S)-2-(4-fluoro-3-hydroxy-phenyl)-5-methyl-1-piperidyl]-2-oxo-acetyl]amino]pyridine-3-carboxamide], the IC50 is 50 to 500 nM in experiment [1]; under 1000 nM in experiment [2] (setting [7]); under 50 nM in experiment [3]; 50 to 500 nM in experiment [4] (read-out: No Cofactor/rel IC50); over 1000 nM in experiment [5]; under 100 nM in experiment [6] (setting [8]). Further, the MTAP intact/deleted ratio result in experiment [6] (setting [9]) was “A (an IC50 ratio greater than or equal to 10 fold)”.
For the molecule `Cc1cc(NC(=O)C(=O)N2C[C@H](C)CC[C@H]2c2cc(F)c(F)c(Cl)c2)cnc1N` (single isomer, unassigned) [Compound 847], the IC50 is over 500 nM in experiment [1]; over 10000 nM in experiment [2] (setting [15]); over 500 nM in experiment [3]; over 500 nM in experiment [4] (read-out: No Cofactor/rel IC50); over 1000 nM in experiment [5]; over 1000 nM in experiment [6] (setting [13]). The MTAP intact/deleted ratio result in experiment [6] (setting [9]) is reported as “C (an IC50 ratio of less than 3 fold)”.
Turning to `COc1ncc(NC(=O)C(=O)N2C[C@@H](C)CC[C@@H]2c2ccc(CCN(C)C)c(Cl)c2)cc1C(N)=O` [Compound 1341, 5-(2-((2R,5S)-2-(3-chloro-4-(2-(dimethylamino)ethyl)phenyl)-5-methylpiperidin-1-yl)-2-oxoacetamido)-2-methoxynicotinamide], the IC50 in experiment [1] is 50 to 500 nM; in experiment [2] (setting [10]), under 1000 nM; in experiment [3] it was under 50 nM; in experiment [4] (setting [11]), under 50 nM; in experiment [5], over 1000 nM; in experiment [6] (setting [8]), under 100 nM.
